{
  "source": "ChEMBL document CHEMBL5321216",
  "about": "“Discovery of bipyridine amide derivatives targeting pRXRα-PLK1 interaction for anticancer therapy” (Eur J Med Chem, 2023)",
  "key": {"[1]": {"test_system": "A549", "assay": "Induction of cell cycle arrest in RXRalpha knockout human A549 cells assessed as accumulation of cells at S phase at 125 nM incubated for 12 hrs by DAPI staining based flow cytometry analysis (reference value: 32.74%)", "type": "functional"}, "[2]": {"molecular_target": "T1, Retinoic acid receptor RXR-alpha (Homo sapiens, UniProt P19793)", "T1 sequence (P19793 whole entry)": "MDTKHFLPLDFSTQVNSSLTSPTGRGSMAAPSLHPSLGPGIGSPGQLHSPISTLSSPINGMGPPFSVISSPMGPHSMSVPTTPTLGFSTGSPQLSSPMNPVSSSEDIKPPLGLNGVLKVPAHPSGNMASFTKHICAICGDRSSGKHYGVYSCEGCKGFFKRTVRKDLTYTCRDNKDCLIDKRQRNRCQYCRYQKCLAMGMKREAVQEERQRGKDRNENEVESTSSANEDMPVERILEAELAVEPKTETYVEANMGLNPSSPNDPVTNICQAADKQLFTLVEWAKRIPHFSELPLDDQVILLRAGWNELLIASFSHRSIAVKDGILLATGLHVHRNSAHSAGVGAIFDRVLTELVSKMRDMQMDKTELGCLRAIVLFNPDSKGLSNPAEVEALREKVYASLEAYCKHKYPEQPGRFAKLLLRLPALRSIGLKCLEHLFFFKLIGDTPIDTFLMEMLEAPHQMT", "assay": "Binding affinity to RXRalpha LBD (unknown origin) assessed as increase in response unit by measuring dissociation constant by SPR analysis"}, "[3]": {"assay": "AUC (0 to infinity) in Sprague-Dawley rat at 25 mg/kg, ip measured for 48 hrs by LC-MS/MS analysis", "type": "ADME, organism-based", "design": "time 48 hrs, dose 25 mg/kg, route ip", "conditions": "in vivo"}, "[4]": {"test_system": "A549", "assay": "Induction of cell cycle arrest in RXRalpha knockout human A549 cells assessed as accumulation of cells at G1 phase at 125 nM incubated for 12 hrs by DAPI staining based flow cytometry analysis (reference value: 52.29 %)", "type": "functional"}, "[5]": {"assay": "Toxicity in BALB/c mouse xenografted with human MDA-MB-231 cells assessed as reduction in body weight at 12.5 to 25 mg/kg/day, ip administered for 15 days", "type": "organism-based", "conditions": "in vivo, 360 h, dose 12.5-25 mg/kg/day, time 15 day"}, "[6]": {"test_system": "MDA-MB-231", "assay": "Induction of apoptosis in human MDA-MB-231 cells assessed as increase in cleaved PARP expression at 125 nM by Western blot analysis", "type": "functional, cell-based", "conditions": "time 1-24 hrs, TDE = time-dependent effect"}, "[7]": {"test_system": "HeLa", "assay": "Antiproliferative activity against human HeLa cells assessed as inhibition of cell proliferation incubated for 72 hrs by MTT assay", "type": "functional, cell-based"}, "[8]": {"test_system": "MDA-MB-231", "assay": "Induction of apoptosis in human MDA-MB-231 cells assessed as reduction in Bcl-2 protein expression measured after 24 hrs by Western blot analysis", "type": "functional, cell-based", "conditions": "dose 7.8-500 nM"}, "[9]": {"test_system": "MDA-MB-231", "assay": "Induction of apoptosis in human MDA-MB-231 cells assessed as live cells at 31.25 nM incubated for 24 hrs by annexin V-FITC/PI staining based flow cytometry analysis (reference value: 91.3%)", "type": "functional"}, "[10]": {"test_system": "MDA-MB-231", "assay": "Induction of apoptosis in human MDA-MB-231 cells assessed as late apoptotic cells at 250 nM incubated for 24 hrs by annexin V-FITC/PI staining based flow cytometry analysis (reference value: 5.93%)", "type": "functional"}, "[11]": {"test_system": "A549", "assay": "Induction of apoptosis in human A549 cells assessed as late apoptotic cells at 125 nM incubated for 24 hrs by annexin V-FITC/PI staining based flow cytometry analysis (reference value: 5.28%)", "type": "functional"}, "[12]": {"test_system": "A549", "assay": "Induction of apoptosis in human A549 cells assessed as early apoptotic cells at 125 nM incubated for 24 hrs by annexin V-FITC/PI staining based flow cytometry analysis (reference value: 0.78%)", "type": "functional"}, "[13]": {"test_system": "HCC1937", "assay": "Antiproliferative activity against human HCC1937 cells assessed as inhibition of cell proliferation incubated for 72 hrs by MTT assay", "type": "functional, cell-based", "conditions": "HCC1937, 72 h"}, "[14]": {"assay": "Toxicity in BALB/c mouse xenografted with human MDA-MB-231 cells assessed as liver damage at 25 mg/kg/day, ip administered for 15 days by H and E staining based analysis", "type": "organism-based", "conditions": "in vivo, 360 h, time 15 day"}, "[15]": {"test_system": "A549", "assay": "Induction of cell cycle arrest in human A549 cells assessed as accumulation of cells at S phase at 62.5 nM incubated for 12 hrs by flow cytometry analysis (reference value: 31.81%)", "type": "functional"}, "[16]": {"test_system": "MDA-MB-231", "assay": "Antitumor activity against human MDA-MB-231 cells xenografted in BALB/c nude mouse assessed as inhibition of tumor growth by measuring DNA damaging response at 12.5 to 25 mg/kg/day, ip administered for 15 days", "type": "functional, organism-based", "conditions": "dose 12.5-25 mg/kg/day, time 15.0 day"}, "[17]": {"test_system": "A549", "assay": "Induction of apoptosis in human A549 cells assessed as live cells at 62.5 nM incubated for 24 hrs by annexin V-FITC/PI staining based flow cytometry analysis (reference value: 93.2%)", "type": "functional"}, "[18]": {"test_system": "MDA-MB-231", "assay": "Induction of apoptosis in human MDA-MB-231 cells assessed as early apoptotic cells at 62.5 nM incubated for 24 hrs by annexin V-FITC/PI staining based flow cytometry analysis (reference value: 2.03%)", "type": "functional"}, "[19]": {"test_system": "A549", "assay": "Induction of apoptosis in human A549 cells assessed as late apoptotic cells at 31.25 nM incubated for 24 hrs by annexin V-FITC/PI staining based flow cytometry analysis (reference value: 5.28%)", "type": "functional"}, "[20]": {"test_system": "MDA-MB-231", "assay": "Induction of cell cycle arrest in human MDA-MB-231 cells assessed as accumulation of cells at G2 phase at 15.625 nM incubated for 12 hrs by flow cytometry analysis (reference value: 15.91%)", "type": "functional", "conditions": "0.01562 µM"}, "[21]": {"molecular_target": "T2, Retinoic acid receptor RXR-alpha (Homo sapiens) (UniProt P19793)", "T2 sequence (whole entry)": "T1 sequence (P19793 whole entry)", "assay": "Antagonist activity at RXRalpha (unknown origin) transfected in human HeLa cells assessed as inhibition of CD3254- induced receptor transactivation by measuring remaining luciferase activity at 1 uM incubated for 24 hrs by dual luciferase reporter assay", "type": "cell-based", "conditions": "filed as antagonist"}, "[22]": {"assay": "Apparent clearance during terminal phase in Sprague-Dawley rat at 25 mg/kg, ip measured for 48 hrs by LC-MS/MS analysis", "type": "ADME, organism-based", "conditions": "in vivo, read-out: CLz/F (converted)"}, "[23]": {"assay": "Cmax in Sprague-Dawley rat at 25 mg/kg, ip measured for 48 hrs by LC-MS/MS analysis", "type": "ADME, organism-based", "design": "time 48 hrs, dose 25 mg/kg, route ip", "conditions": "in vivo"}, "[24]": {"test_system": "A549", "assay": "Antiproliferative activity against RXRalpha knockout human A549 cells assessed as inhibition of cell growth incubated for 72 hrs by MTT assay", "type": "functional, cell-based", "conditions": "A549, 72 h"}, "[25]": {"test_system": "MDA-MB-231", "assay": "Induction of apoptosis in human MDA-MB-231 cells assessed as early apoptotic cells at 125 nM incubated for 24 hrs by annexin V-FITC/PI staining based flow cytometry analysis (reference value: 2.03%)", "type": "functional"}, "[26]": {"test_system": "A549", "assay": "Induction of apoptosis in human A549 cells assessed as dead cells at 250 nM incubated for 24 hrs by annexin V-FITC/PI staining based flow cytometry analysis (reference value: 0.75%)", "type": "functional"}, "[27]": {"test_system": "MDA-MB-231", "assay": "Downregulation of RXRalpha protein level in human MDA-MB-231 cells at 125 nM measured after 1 to 24 hrs by Western blot analysis", "type": "functional, cell-based", "conditions": "time 1-24 hrs"}, "[28]": {"test_system": "MDA-MB-231", "assay": "Induction of apoptosis in human MDA-MB-231 cells assessed as late apoptotic cells at 62.5 nM incubated for 24 hrs by annexin V-FITC/PI staining based flow cytometry analysis (reference value: 5.93%)", "type": "functional"}},
  "note": "Calls of active or inactive are those of the source. The calls are words filed in the database; no cut-off is given here.",
  "data": [
    {"smiles": "O=C(/C=C/c1ccccc1)Nc1cc(-c2ccnc(N3CCC(CO)CC3)c2)ccn1", "values": [
      {"measurement": "Activity", "setting": "[1]", "result": 36.18, "unit": "%"},
      {"measurement": "Kd", "setting": "[2]", "result": 39.4, "unit": "nM"},
      {"measurement": "AUC(0-inf)", "setting": "[3]", "result": 14600, "unit": "ng·h/mL"},
      {"measurement": "Activity", "setting": "[4]", "result": 17.83, "unit": "%"},
      {"measurement": "Activity", "setting": "[5]", "result": "Non-Toxic"},
      {"measurement": "Activity", "setting": "[6]", "result": "Tde"},
      {"measurement": "IC50", "setting": "[7]", "result": 77, "unit": "nM"},
      {"measurement": "Activity", "setting": "[8]", "result": "Dose-Dependent Effect"},
      {"measurement": "Activity", "setting": "[9]", "result": 82.2, "unit": "%"},
      {"measurement": "Activity", "setting": "[10]", "result": 20.2, "unit": "%"},
      {"measurement": "Activity", "setting": "[11]", "result": 22.8, "unit": "%"},
      {"measurement": "Activity", "setting": "[12]", "result": 22.9, "unit": "%"},
      {"measurement": "IC50", "setting": "[13]", "result": 561, "unit": "nM"},
      {"measurement": "Activity", "setting": "[14]", "result": "Non-Toxic"},
      {"measurement": "Activity", "setting": "[15]", "result": 27.68, "unit": "%"},
      {"measurement": "Activity", "setting": "[16]", "result": "Active"},
      {"measurement": "Activity", "setting": "[17]", "result": 67.7, "unit": "%"},
      {"measurement": "Activity", "setting": "[18]", "result": 13.1, "unit": "%"},
      {"measurement": "Activity", "setting": "[19]", "result": 18.9, "unit": "%"},
      {"measurement": "Activity", "setting": "[20]", "result": 15.75, "unit": "%"},
      {"measurement": "inhibition", "setting": "[21]", "result": "Active"},
      {"measurement": "CL/F", "setting": "[22]", "result": 25.8, "unit": "mL/min/kg"},
      {"measurement": "Cmax", "setting": "[23]", "result": 8080, "unit": "ng/mL"},
      {"measurement": "IC50", "setting": "[24]", "result": 3360, "unit": "nM"},
      {"measurement": "Activity", "setting": "[25]", "result": 11.2, "unit": "%"},
      {"measurement": "Activity", "setting": "[26]", "result": 2.36, "unit": "%"},
      {"measurement": "Activity", "setting": "[27]", "result": "Active"},
      {"measurement": "Activity", "setting": "[28]", "result": 15.2, "unit": "%"}
    ]}
  ]
}
